Measured values reported in ChEMBL document CHEMBL1201862, “PubChem BioAssay data set” (2004).
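Cells were grown in 96-well plates and exposed to each compound for 48 hours at five concentrations; endpoints were interpolated linearly between bracketing concentrations, or set to the highest concentration if not reached. Abbreviation: GI50, concentration required for 50% inhibition of growth.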 Activity calls are given as the source filed them. Rule as the data show it: active = GI50 up to about 1.1 µM and inactive = higher. Residues, ends and D or L forms follow the SMILES beside them. *: point of attachment. Pentanoyl = CCCCC(=O)*; Boc = CC(C)(C)OC(=O)*

Assays:
Assay in all cases: DTP human tumour cell line panel, 48 h
RPMI-8226 = tested on: RPMI-8226
SNB-19 = tested on: SNB-19
SN12C = tested on: SN12C
SK-MEL-5 = tested on: SK-MEL-5
NCI-H23 = tested on: NCI-H23
SK-OV-3 = tested on: SK-OV-3
SK-MEL-28 = tested on: SK-MEL-28
M14 = tested on: M14
K562 = tested on: K562
UACC-257 = tested on: UACC-257
LXFL 529 = tested on: LXFL 529
HL-60 = tested on: HL-60
CAKI-1 = tested on: CAKI-1
RXF 393 = tested on: RXF 393
HOP-92 = tested on: HOP-92
NCI-H226 = tested on: NCI-H226
BT-549 = tested on: BT-549
NCI/ADR-RES = tested on: NCI/ADR-RES
MDA-N = tested on: MDA-N
Hs-578T = tested on: Hs-578T

Measured: GI50

Cc1ccc(NC(=O)CC(=O)n2nc(C)c(/N=N/c3ccccc3C(=O)O)c2C)cc1
inactive: RPMI-8226 > 100 µM | SNB-19 > 100 µM | SN12C > 100 µM | SK-MEL-5 > 100 µM | NCI-H23 > 100 µM | SK-OV-3 > 100 µM | SK-MEL-28 > 100 µM | M14 > 100 µM | K562 > 100 µM | UACC-257 > 100 µM | LXFL 529 > 100 µM | HL-60 > 100 µM | CAKI-1 > 100 µM

CCOC(=O)NC(=O)c1cn(CCN2CCN(C(=O)NCCCCCCNC(=O)N3CCN(CCn4cc(C(=O)NC(=O)OCC)c(=O)n(CCN(CC)CC)c4=O)CC3)CC2)c(=O)n(CCC(CC)CC)c1=O
inactive: RXF 393 > 100 µM | RPMI-8226 > 100 µM | SNB-19 > 100 µM | SN12C > 100 µM | SK-MEL-5 > 100 µM | NCI-H23 > 100 µM | SK-OV-3 > 100 µM | SK-MEL-28 > 100 µM | M14 > 100 µM | K562 > 100 µM | UACC-257 > 100 µM | LXFL 529 > 100 µM | HL-60 > 100 µM | HOP-92 > 100 µM

O=[N+]([O-])c1cc(Cl)ccc1OCc1ccccc1
inactive: RXF 393 47.3 µM | RPMI-8226 67 µM | SN12C > 100 µM | SK-MEL-5 27.3 µM | NCI-H23 32.1 µM | SK-OV-3 > 100 µM | SK-MEL-28 > 100 µM | M14 83.6 µM | K562 42.7 µM | UACC-257 45.3 µM | LXFL 529 41.6 µM | HL-60 28.4 µM | HOP-92 34 µM

CC(=O)Nc1ccc(C2CC(c3ccc([N+](=O)[O-])cc3)=Nc3ccccc3S2)cc1 (stereo unspecified)
inactive: RXF 393 19.3 µM | SNB-19 22.7 µM | SN12C 16.6 µM | SK-MEL-5 > 10 µM | NCI-H23 > 10 µM | SK-OV-3 40.6 µM | SK-MEL-28 18.7 µM | M14 13.5 µM | K562 4.73 µM | UACC-257 15.7 µM | LXFL 529 16.6 µM | NCI-H226 26.9 µM | HL-60 21.3 µM | CAKI-1 24 µM

O=C(CSc1nnc(-c2ccc(/N=C\c3ccc(Cl)cc3)cc2)o1)Nc1cccc(Cl)c1
inactive: RXF 393 80.5 µM | RPMI-8226 70 µM | SNB-19 > 100 µM | SN12C > 100 µM | SK-MEL-5 > 100 µM | NCI-H23 > 100 µM | SK-OV-3 > 100 µM | SK-MEL-28 > 100 µM | M14 > 100 µM | K562 > 100 µM | UACC-257 > 100 µM | LXFL 529 > 100 µM | NCI-H226 > 100 µM | HL-60 > 100 µM

N#Cc1c(N)oc2cc3c(C#N)c(N)oc3cc12
inactive: RXF 393 > 100 µM | RPMI-8226 > 100 µM | SNB-19 > 100 µM | SN12C > 100 µM | SK-MEL-5 > 100 µM | NCI-H23 > 100 µM | SK-OV-3 > 100 µM | SK-MEL-28 > 100 µM | M14 > 100 µM | K562 > 100 µM | UACC-257 > 100 µM | LXFL 529 > 100 µM | HL-60 > 100 µM | CAKI-1 > 100 µM | HOP-92 > 100 µM

COC(=O)c1ccc(NCC2=CC(=O)c3ccccc3C2=O)cc1
inactive: RXF 393 22 µM | RPMI-8226 6.32 µM | SNB-19 31.4 µM | SN12C 21.8 µM | SK-MEL-5 11.7 µM | NCI-H23 14.5 µM | BT-549 20 µM | SK-OV-3 16.1 µM | SK-MEL-28 17.5 µM | NCI/ADR-RES 27.5 µM | M14 17.8 µM | MDA-N 9.23 µM | K562 3.44 µM | UACC-257 14.3 µM | NCI-H226 16.4 µM | HL-60 3.1 µM | Hs-578T 28.6 µM | CAKI-1 11.6 µM | HOP-92 2.77 µM

Cc1ccccc1N1C(=O)/C(=C/c2ccc(N(CCC#N)CCC#N)cc2)N=C1c1cc([N+](=O)[O-])ccc1Cl
inactive: RPMI-8226 21 µM | SNB-19 > 100 µM | SN12C > 100 µM | SK-MEL-5 38.5 µM | NCI-H23 > 100 µM | SK-OV-3 > 100 µM | SK-MEL-28 > 100 µM | M14 > 100 µM | K562 35.8 µM | UACC-257 > 100 µM | LXFL 529 96.8 µM | NCI-H226 > 100 µM | HL-60 35 µM | CAKI-1 > 100 µM

Cc1[nH]c2ccccc2c1C1Cc2ccccc2N1C(=O)/C=C/C(=O)O (stereo unspecified)
inactive: RXF 393 > 100 µM | SNB-19 > 100 µM | SN12C > 100 µM | SK-MEL-5 > 100 µM | NCI-H23 > 100 µM | SK-OV-3 > 100 µM | M14 > 100 µM | K562 > 100 µM | UACC-257 > 100 µM | LXFL 529 > 100 µM | NCI-H226 > 100 µM | HL-60 > 100 µM | CAKI-1 > 100 µM

CCCCC(=O)Oc1ccc(CC(NC(=O)OC(C)(C)C)C(=O)NC(C)C(=O)NC(Cc2ccccc2)C(=O)NCC(N)=O)cc1 (stereo unspecified) (Boc-Y(Pentanoyl)AFG-NH2; configuration not given here)
inactive: RXF 393 44.5 µM | RPMI-8226 21.2 µM | SNB-19 23.3 µM | SN12C 32.3 µM | SK-MEL-5 70 µM | NCI-H23 41 µM | BT-549 23.7 µM | SK-OV-3 32.6 µM | SK-MEL-28 27.3 µM | NCI/ADR-RES > 100 µM | M14 36.7 µM | MDA-N 25.9 µM | K562 46.3 µM | UACC-257 27.7 µM | NCI-H226 > 100 µM | HL-60 26.4 µM | Hs-578T 34.6 µM | CAKI-1 > 100 µM | HOP-92 16.2 µM

COC(=O)n1c(=O)nc2c3c(ncn21)Oc1c(c(-c2ccccc2)nn1-c1ccccc1)C3c1ccc(Cl)cc1 (stereo unspecified)
inactive: RXF 393 1.63 µM | RPMI-8226 2.1 µM | SNB-19 1.75 µM | SN12C 1.73 µM | SK-MEL-5 1.77 µM | NCI-H23 2.03 µM | BT-549 3.87 µM | SK-OV-3 3.29 µM | SK-MEL-28 1.79 µM | NCI/ADR-RES 1.46 µM | M14 1.44 µM | MDA-N 1.66 µM | K562 1.62 µM | UACC-257 1.89 µM | NCI-H226 1.58 µM | HL-60 1.51 µM | Hs-578T 1.17 µM | CAKI-1 1.63 µM | HOP-92 1.71 µM

Clc1nc2c(-c3cccs3)ncnc2n1Cc1ccccc1
inactive: RXF 393 17 µM | RPMI-8226 3.58 µM | SNB-19 27.4 µM | SN12C 35.8 µM | SK-MEL-5 24.9 µM | NCI-H23 46.1 µM | BT-549 25.8 µM | SK-OV-3 38.9 µM | SK-MEL-28 61.5 µM | NCI/ADR-RES 46.3 µM | M14 66.8 µM | MDA-N 42.6 µM | K562 57.3 µM | UACC-257 21.2 µM | NCI-H226 15.8 µM | HL-60 24.5 µM | Hs-578T 22.8 µM | CAKI-1 3.08 µM | HOP-92 9.44 µM
